# Assay results from publication PMC5285354, “Cationic Net Charge and Counter Ion Type as Antimicrobial Activity Determinant Factors of Short Lipopeptides” (Frontiers in Microbiology, 2017).
# Read-outs that look alike come from different tables or passages of the source. Where a SMILES comes first, the peptide text is derived from it. The star is where a group is joined. Palmitoyl = CCCCCCCCCCCCCCCC(=O)*; Myristoyl = CCCCCCCCCCCCCC(=O)*
# How the values were obtained:
# Type in all cases: cell-based
# [1] = test system: Pseudomonas aeruginosa (ATCC 9027); conditions: ATCC 9027, 24 h
# [2] = test system: Proteus vulgaris (PCM 2668); conditions: 24 h
# [3] = test system: Candida albicans (ATCC 10231)
# [4] = test system: Staphylococcus epidermidis (PCM 2118); conditions: for MIC Staphylococcus epidermidis: PCM 2118, 18 h; for MBC Staphylococcus epidermidis: PCM 2118, 24 h
# Procedure, shortened: (§1)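 Lowest lipopeptide concentration (μg/mL) with no observable growth gave the MIC, alongside MBC/MFC, by CLSI microbroth dilution. Fungi: Sabouraud dextrose broth, 10^3 cfu/mL start, 25°C for 48 h; bacteria: MH broth, 10^5 cfu/mL, 37°C for 18 h. Run in triplicate, three separate days.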
# [5] = test system: Candida albicans (ATCC 10231); conditions: ATCC 10231, 48 h
# Procedure, shortened: (§2)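 MIC in μg/mL, read as the lowest lipopeptide level with no observable growth. Microbroth dilution followed CLSI guidance, using MH broth, 10^5 cfu/mL and 18 h at 37°C for bacterial strains, or Sabouraud Dextrose broth, 10^3 cfu/mL and 48 h at 25°C for yeasts.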
# [6] = test system: Staphylococcus aureus (ATCC 25923); conditions: for MBC Staphylococcus aureus, lipopeptides without TFA counter ion / MIC Staphylococcus aureus / MIC Staphylococcus aureus, lipopeptides without TFA counter ion: ATCC 25923, 18 h; for MBC Staphylococcus aureus: ATCC 25923, 24 h
# Procedure, shortened: as §2
# [7] = test system: Bacillus subtilis (ATCC 6633); conditions: for MIC Bacillus subtillis: ATCC 6633, 18 h; for MBC Bacillus subtillis: ATCC 6633, 24 h
# Procedure, shortened: as §1
# [8] = test system: Proteus vulgaris (PCM 2668); conditions: for MIC Proteus vulgaris: 18 h
# Procedure, shortened: as §2
# [9] = test system: Klebsiella pneumoniae (ATCC 700603); conditions: for MBC Klebsiella pneumoniae, lipopeptides without TFA counter ion / MIC Klebsiella pneumoniae / MIC Klebsiella pneumoniae, lipopeptides without TFA counter ion: ATCC 700603, 18 h; for MBC Klebsiella pneumoniae: ATCC 700603, 24 h
# Procedure, shortened: as §2
# [10] = test system: Escherichia coli (ATCC 25922); conditions: for MBC Escherichia coli, lipopeptides without TFA counter ion / MIC Escherichia coli / MIC Escherichia coli, lipopeptides without TFA counter ion: ATCC 25922, 18 h; for MBC Escherichia coli: ATCC 25922, 24 h
# Procedure, shortened: as §2
# [11] = test system: Candida tropicalis (PCM 2681); conditions: PCM 2681, 48 h
# Procedure, shortened: as §2
# [12] = test system: Enterococcus faecalis (ATCC 29212); conditions: for MBC Enterococcus fecalis, lipopeptides without TFA counter ion / MIC Enterococcus fecalis / MIC Enterococcus fecalis, lipopeptides without TFA counter ion: ATCC 29212, 18 h; for MBC Enterococcus fecalis: ATCC 29212, 24 h
# Procedure, shortened: as §1
# [13] = test system: Pseudomonas aeruginosa (ATCC 9027); conditions: ATCC 9027, 18 h
# Procedure, shortened: as §2
# [14] = test system: Aspergillus brasiliensis (ATCC 16404); conditions: ATCC 16404, 48 h
# Procedure, shortened: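 Broth microdilution per CLSI: Mueller-Hinton broth, 10^5 cfu/mL inoculum, 18 h at 37°C for bacteria; Sabouraud dextrose broth, 10^3 cfu/mL, 48 h at 25°C for fungi. MIC (μg/mL) is the lowest lipopeptide concentration inhibiting visible growth; MBC/MFC also determined. Triplicate on three days.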
# human red blood cells = conditions: 1 h
# Method: The hemolytic activity of the lipopeptides was determined by exposing human red blood cells (4% v/v) to tested compounds at graded concentrations. Red blood cells were obtained from a healthy donor. EDTA was used to prevent the blood clotting. The plasma was removed via centrifugation and the erythrocytes were washed three times with PBS. The red blood cells were suspended in PBS and incubated with different concentrations of lipopeptides at 37°C for 1 h and centrifuged for 5 min at 1000 × g. The supernatants were transferred to a sterile 96-well plate and hemoglobin release was measured with an Epoch microplate spectrophotometer (BioTek, USA) by recording the absorbance at 550 nm. A 0.1% Triton X-100 solution was used as the positive control (100% of hemolysis) and pure PBS as the negative (0% of hemolysis). Minimum hemolytic concentration (MHC) was taken as the lowest concentration which induced 10% of hemolysis.
SMILES,MBC Pseudomonas aeruginosa [1] [µg/mL],MIC Staphylococcus epidermidis [4] [µg/mL],MBC Staphylococcus epidermidis [4] [µg/mL],MFC Candida albicans [5] [µg/mL],MIC Candida albicans [5] [µg/mL],MIC Staphylococcus aureus [6] [µg/mL],MBC Staphylococcus aureus [6] [µg/mL],MIC Bacillus subtillis [7] [µg/mL],MBC Bacillus subtillis [7] [µg/mL],MIC Proteus vulgaris [8] [µg/mL],MIC Klebsiella pneumoniae [9] [µg/mL],MBC Klebsiella pneumoniae [9] [µg/mL],MIC Escherichia coli [10] [µg/mL],MBC Escherichia coli [10] [µg/mL],MFC Candida tropicalis [11] [µg/mL],MIC Candida tropicalis [11] [µg/mL],MIC Enterococcus fecalis [12] [µg/mL],MBC Enterococcus fecalis [12] [µg/mL],MIC Pseudomonas aeruginosa [13] [µg/mL],MFC Aspergillus brasiliensis [14] [µg/mL],also measured
CCCCCCCCCCCCCC(=O)N[C@@H](CCCCN)C(=O)NCC(N)=O [C14-KG-NH2] (Myristoyl-Lys-Gly-NH2),64,16,16,128,128,32,32,16,16,>512,32,32,64,64,256,256,32,32,32,128,"MBC Proteus vulgaris [2]: >512 µg/mL; MFC Candida albicans, lipopeptides without TFA counter ion [3]: 256 µg/mL; MIC Candida albicans, lipopeptides without TFA counter ion [5]: 256 µg/mL; MBC Staphylococcus aureus, lipopeptides without TFA counter ion [6]: 32 µg/mL; MIC Staphylococcus aureus, lipopeptides without TFA counter ion [6]: 32 µg/mL; MBC Klebsiella pneumoniae, lipopeptides without TFA counter ion [9]: 64 µg/mL; MIC Klebsiella pneumoniae, lipopeptides without TFA counter ion [9]: 32 µg/mL; MBC Escherichia coli, lipopeptides without TFA counter ion [10]: 64 µg/mL; MIC Escherichia coli, lipopeptides without TFA counter ion [10]: 64 µg/mL; MBC Enterococcus fecalis, lipopeptides without TFA counter ion [12]: 32 µg/mL; MIC Enterococcus fecalis, lipopeptides without TFA counter ion [12]: 32 µg/mL; MIC Aspergillus brasiliensis [14]: 128 µg/mL"
CCCCCCCCCCCCCCCC(=O)N[C@@H](CCCCN)C(=O)N[C@@H](CCCCN)C(=O)N[C@@H](CCCCN)C(=O)N[C@@H](CCCCN)C(N)=O [C16-KKKK-NH2] (Palmitoyl-KKKK-NH2),8,4,4,128,128,4,8,4,4,>512,4,8,8,8,128,128,16,16,8,128,"MBC Proteus vulgaris [2]: >512 µg/mL; MFC Candida albicans, lipopeptides without TFA counter ion [3]: 128 µg/mL; MIC Candida albicans, lipopeptides without TFA counter ion [5]: 128 µg/mL; MBC Staphylococcus aureus, lipopeptides without TFA counter ion [6]: 4 µg/mL; MIC Staphylococcus aureus, lipopeptides without TFA counter ion [6]: 4 µg/mL; MBC Klebsiella pneumoniae, lipopeptides without TFA counter ion [9]: 4 µg/mL; MIC Klebsiella pneumoniae, lipopeptides without TFA counter ion [9]: 4 µg/mL; MBC Escherichia coli, lipopeptides without TFA counter ion [10]: 8 µg/mL; MIC Escherichia coli, lipopeptides without TFA counter ion [10]: 8 µg/mL; MBC Enterococcus fecalis, lipopeptides without TFA counter ion [12]: 8 µg/mL; MIC Enterococcus fecalis, lipopeptides without TFA counter ion [12]: 4 µg/mL; MIC Aspergillus brasiliensis [14]: 128 µg/mL"
CCCCCCCCCCCCCCCC(=O)N[C@@H](CCCCN)C(=O)N[C@@H](CCCCN)C(N)=O [C16-KK-NH2],8,4,4,128,128,8,8,4,4,>512,16,16,8,8,128,128,8,8,8,128,"MBC Proteus vulgaris [2]: >512 µg/mL; MFC Candida albicans, lipopeptides without TFA counter ion [3]: 256 µg/mL; MIC Candida albicans, lipopeptides without TFA counter ion [5]: 256 µg/mL; MBC Staphylococcus aureus, lipopeptides without TFA counter ion [6]: 4 µg/mL; MIC Staphylococcus aureus, lipopeptides without TFA counter ion [6]: 4 µg/mL; MBC Klebsiella pneumoniae, lipopeptides without TFA counter ion [9]: 32 µg/mL; MIC Klebsiella pneumoniae, lipopeptides without TFA counter ion [9]: 16 µg/mL; MBC Escherichia coli, lipopeptides without TFA counter ion [10]: 4 µg/mL; MIC Escherichia coli, lipopeptides without TFA counter ion [10]: 4 µg/mL; MBC Enterococcus fecalis, lipopeptides without TFA counter ion [12]: 4 µg/mL; MIC Enterococcus fecalis, lipopeptides without TFA counter ion [12]: 4 µg/mL; MIC Aspergillus brasiliensis [14]: 128 µg/mL"
CCCCCCCCCCCC(=O)N[C@@H](CCCCN)C(N)=O [C12-K-NH2],256,128,128,512,256,256,256,128,256,>512,256,256,256,256,512,256,256,256,128,512,"Hemolysis HC10 (MHC), concentration of lipopeptide inducing 10% of hemolysis (human red blood cells): 1000 µg/mL; MBC Proteus vulgaris ([8]; PCM 2668, TFA salt, subculture on Mueller-Hinton II Agar, 24 h 37°C, triplicate): >1000 µg/mL; MIC Aspergillus brasiliensis [14]: 256 µg/mL"
